Target: T1, Pancreatic lipase (Sus scrofa, UniProt P00591)
T1 sequence (P00591 1-450): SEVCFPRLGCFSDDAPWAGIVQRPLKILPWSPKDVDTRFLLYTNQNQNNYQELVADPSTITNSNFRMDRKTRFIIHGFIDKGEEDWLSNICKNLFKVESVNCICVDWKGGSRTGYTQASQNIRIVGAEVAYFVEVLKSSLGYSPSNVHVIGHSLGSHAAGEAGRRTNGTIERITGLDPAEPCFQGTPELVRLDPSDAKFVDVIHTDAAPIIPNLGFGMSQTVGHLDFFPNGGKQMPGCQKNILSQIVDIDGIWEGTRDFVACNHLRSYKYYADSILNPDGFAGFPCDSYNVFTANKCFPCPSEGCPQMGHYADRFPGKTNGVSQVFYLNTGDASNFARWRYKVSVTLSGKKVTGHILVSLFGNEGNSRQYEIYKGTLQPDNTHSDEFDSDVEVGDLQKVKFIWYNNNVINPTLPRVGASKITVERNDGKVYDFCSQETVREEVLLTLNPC
Assay: spectrophotometric p-nitrophenyl palmitate hydrolysis, single concentration […]
Type: biochemical

| inhibition at 250 µM [%] | SMILES |
| --- | --- |
| 72 | COc1cc2cc(Oc3ccc4ccc(=O)oc4c3)c(=O)oc2cc1O [compound 1, daphnoretin] |
| 52 | COC(=O)c1c(O)cc(O)c2c1OC(c1ccc(O)cc1)C(O)C2 (stereo not shown) [compound 2, 5,7,4′-trihydroxy-8-methoxycarbonyl flavanol] |
| 61.8 | O=C1c2c(O)cc(O)cc2O[C@H](c2ccc(O)cc2)[C@@H]1[C@@H]1C(=O)c2c(O)cc(O)cc2O[C@@H]1c1ccc(O)cc1 [compound 3, neochamaejasmin A] |
| 68 | C[C@@H]1O[C@@H](OC[C@H]2O[C@@H](Oc3c(-c4ccc(O)c(O)c4)oc4cc(O)cc(O)c4c3=O)[C@H](O[C@@H]3O[C@@H](C)[C@H](O)[C@@H](O)[C@H]3O)[C@@H](O)[C@H]2O)[C@H](O)[C@H](O)[C@H]1O [compound 7, quercetin 3-O-α-L-rhamnopyranosyl-(1 → 2)-[α-L-rhamnopyranosyl-(1 → 6)]-β-D-galactopyranoside] |

From paper PMC10494966 (RSC Advances, 2023)
